The results in this text go back to patent US11084842B2 (SUNSHINE LAKE PHARMA CO., LTD., priority 2018, dated 2021).

The first experiment deals with T1, human SGLT1 (Homo sapiens, UniProt P13866).
T1 construct: expressed in transfected cells; host or cells: CHO cells (FIP-in CHO; mock-transfected cells as control)
T1 sequence (P13866 1-664): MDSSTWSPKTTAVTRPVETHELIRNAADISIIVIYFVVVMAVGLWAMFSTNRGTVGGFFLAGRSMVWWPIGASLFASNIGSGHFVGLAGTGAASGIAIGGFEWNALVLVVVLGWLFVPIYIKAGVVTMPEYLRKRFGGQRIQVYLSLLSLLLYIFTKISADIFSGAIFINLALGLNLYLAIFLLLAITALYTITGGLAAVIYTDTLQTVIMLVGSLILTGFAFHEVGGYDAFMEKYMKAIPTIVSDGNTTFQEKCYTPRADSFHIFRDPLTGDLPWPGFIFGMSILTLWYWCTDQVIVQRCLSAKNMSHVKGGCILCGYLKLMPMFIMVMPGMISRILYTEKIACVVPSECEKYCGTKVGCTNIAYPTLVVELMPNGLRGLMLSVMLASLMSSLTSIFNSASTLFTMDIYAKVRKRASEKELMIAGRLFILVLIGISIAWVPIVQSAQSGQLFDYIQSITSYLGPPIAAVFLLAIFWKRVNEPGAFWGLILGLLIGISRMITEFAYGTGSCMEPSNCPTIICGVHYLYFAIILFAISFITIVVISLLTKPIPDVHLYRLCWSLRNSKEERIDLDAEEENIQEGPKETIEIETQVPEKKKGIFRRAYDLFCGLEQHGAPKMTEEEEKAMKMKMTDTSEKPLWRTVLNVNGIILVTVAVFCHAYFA
In words: Test of inhibitory activity on SGLT1 ([14C]-AMG uptake in CHO cells expressing human SGLT1). The experiment is classed as cell-based. To be noted: CHO cells expressing human SGLT1, 0.5 μM [14C]-AMG, 37° C., 1 hour. The protocol:
The following methods can be used to determine the inhibitory activity of the compound of the invention on SGLT-1.
Mock-transfected FIP-in CHO cells (3×10^4 cells) and expressing human SGLT1 CHO cells were seeded into 96-well plates respectively. The cells were incubated for 12 hours. Each well of the 96-well plate was washed with 150 μL of sodium-free buffer once. To each well was added 50 μL of sodium-containing buffer containing test compounds having different concentrations and 0.5 μM [^14C]-AMG. The incubation mixture was incubated at 37° C. for 1 hour. To each well was added 150 μL of precooled sodium-free buffer to terminate the reaction. The cell pellet was washed with sodiumfree buffer three times and the residual liquid in well was removed. To each well was added 20 μL of precooled 100 mM NaOH. The 96-well plate was vibrated at 900 rpm for 5 minutes. Scintillation fluid (80 μL) was added to each well which was then vibrated at 600 rpm for 5 minutes. The amount of ^14C-AMG was quantitatively detected using liquid scintillation.
The term IC50 denotes the concentration needed to halve the response being measured. A high value points to weaker potency. Molecule `Cc1ccc([C@]23OC[C@](C(C)(C)O)(O2)[C@@H](O)[C@H](O)[C@H]3O)cc1Cc1ccc(CCCC(=O)NC2(C(=O)NCCN(C)C)CCCC2)cc1` [Example 8, N-(2-dimethylaminoethyl)-1-[4-[4-[[2-methyl-5-[(1S,2S,3S,4R,5S)-2,3,4-trihydroxy-1-(1-hydroxy-1-methyl-ethyl)-6,8-dioxabicyclo[3.2.1]octane-5-yl]phenyl]methyl]phenyl]butylamide]cyclopentyl formamide] returned an IC50 of 0.24 nM. The same measure, in the same setting: with `Cc1ccc([C@]23OC[C@](C(C)(C)O)(O2)[C@@H](O)[C@H](O)[C@H]3O)cc1Cc1ccc(CCCC(=O)N[C@H](C(=O)NCCN(C)C)C2CC2)cc1` [Example 10, N-[(1S)-1-cyclopropyl-2-(2-dimethylaminoethylamino)-2-oxo-ethyl]-4-[4-[[2-methyl-5-[(1S,2S,3S,4R,5S)-2,3,4-trihydroxy-1-(1-hydroxy-1-methyl-ethyl)-6,8-dioxabicyclo[3.2.1]octane-5-yl]phenyl]methyl]phenyl]butanamide] the figure was 1.61 nM; with `Cc1ccc([C@]23OC[C@](C(C)(C)O)(O2)[C@@H](O)[C@H](O)[C@H]3O)cc1Cc1ccc(CCCC(=O)NC2(C(=O)NCCN(C)C)CCC2)cc1` [Example 11], 0.23 nM. The same measure, in the same setting: under `CCC(CC)(NC(=O)CCCc1ccc(Cc2cc([C@]34OC[C@](C(C)(C)O)(O3)[C@@H](O)[C@H](O)[C@H]4O)ccc2C)cc1)C(=O)NCCN(C)C` [Example 12, N-(2-dimethylaminoethyl)-2-ethyl-2-[4-[4-[[2-methyl-5-[(1S,2S,3S,4R,5S)-2,3,4-trihydroxy-1-(1-hydroxy-1-methyl-ethyl)-6,8-dioxabicyclo[3.2.1]octane-5-yl]phenyl]methyl]phenyl]butanamido]butanamide] stands 1.51 nM. The molecule `Cc1ccc([C@]23OC[C@](C)(O2)[C@@H](O)[C@H](O)[C@H]3O)cc1Cc1ccc(CCCC(=O)NC(C)(C)C(=O)NCCN(C)C)cc1` [Example 13] yielded an IC50 of 2.9 nM.

`CC[C@@]12CO[C@@](c3ccc(C)c(Cc4ccc(CCCC(=O)NC(C)(C)C(=O)NCCN(C)C)cc4)c3)(O1)[C@H](O)[C@@H](O)[C@@H]2O` [Example 14, N-(2-dimethylaminoethyl)-2-[4-[4-[[5-[(1S,2S,3S,4R,5S)-1-ethyl-2,3,4-trihydroxy-6,8-dioxabicyclo[3.2.1]octane-5-yl]-2-methyl-phenyl]methyl]phenyl]butanamido]-2-methyl-propionamide] returned an IC50 of 0.57 nM. Molecule `Cc1ccc([C@]23OC[C@](C(C)(C)O)(O2)[C@@H](O)[C@H](O)[C@H]3O)cc1Cc1ccc(CCCC(=O)NC2(C(=O)NCCN(C)C)CCCCC2)cc1` [Example 16, N-(2-dimethylaminoethyl)-1-[4-[4-[[2-methyl-5-[(1S,2S,3S,4R,5S)-2,3,4-trihydroxy-1-(1-hydroxy-1-methyl-ethyl)-6,8-dioxabicyclo[3.2.1]octane-5-yl]phenyl]methyl]phenyl]butylamide]cyclohexyl carboxamide] showed an IC50 of 0.47 nM. Still for that read-out and setting: with `Cc1ccc([C@]23OC[C@](C)(O2)[C@@H](O)[C@H](O)[C@H]3O)cc1Cc1ccc(CCCC(=O)NC2(C(=O)NCCN(C)C)CCC2)cc1` [Example 17, N-(2-dimethylaminoethyl)-1-[4-[4-[[2-methyl-5-[(1S,2S,3S,4R,5S)-2,3,4-trihydroxy-1-methyl-6,8-dioxabicyclo[3.2.1]octane-5-yl]phenyl]methyl]phenyl]butanamido]cyclobutyl carboxamide] the figure was 0.4 nM; with `Cc1ccc([C@]23OC[C@](C)(O2)[C@@H](O)[C@H](O)[C@H]3O)cc1Cc1ccc(CCCC(=O)NC2(C(=O)NCCN(C)C)CCCCC2)cc1` [Example 18], 0.43 nM. The same measure, in the same setting: with `Cc1ccc([C@]23OC[C@](C)(O2)[C@@H](O)[C@H](O)[C@H]3O)cc1Cc1ccc(OCCCC(=O)NC2(C(=O)NCCN(C)C)CCC2)cc1` [Example 20, N-(2-dimethylaminoethyl)-1-[4-[4-[[2-methyl-5-[(1S,2S,3S,4R,5S)-2,3,4-trihydroxy-1-methyl-6,8-dioxabicyclo[3.2.1]octane-5-yl]phenyl]methyl]phenoxy]butanamido]cyclobutyl carboxamide] the figure was 0.55 nM; with `Cc1ccc([C@]23OC[C@](C)(O2)[C@@H](O)[C@H](O)[C@H]3O)cc1Cc1ccc(OCCCC(=O)NC2(C(=O)NCCN(C)C)CCCCC2)cc1` [Example 21, N-(2-dimethylaminoethyl)-1-[4-[4-[[2-methyl-5-[(1S,2S,3S,4R,5S)-2,3,4-trihydroxy-1-methyl-6,8-dioxabicyclo[3.2.1]octane-5-yl]phenyl]methyl]phenoxy]butanamido]cyclohexylcarboxamide], 0.6 nM.

The test system of the next experiment is blood glucose of SD rats. In words: Oral glucose tolerance test in SD rats (Test Method 2). The experiment is classed as in vivo. To be noted: dosage 0.1 mg/kg by gavage, glucose 4.0 g/kg, decline rate of AUCGlu 0-60min. Here is the method: The following methods were used to evaluate the effects of the compound of the invention on improving oral glucose tolerance and glycosuria excretion.
The weights and the fasting blood glucose levels of male SD rats were measured after an overnight 15-hours fast. The rats were grouped by their weights and fasting plasma glucose levels. […] After 30 minutes, the blood glucose level (i.e., zero point blood glucose) of each group was measured, and then each group was immediately administered glucose (4.0 g/kg) once by gavage. The blood was drawn from the caudal vein of the […] at 15, 30 and 60 minutes after glucose administration and the blood glucose levels were measured continuously on blood-glucose meter. The decline rate of the area under the blood sugar curve within 60 minutes (AUCGlu 0-60min) after sugar loading was calculated.
In the case of `Cc1ccc([C@]23OC[C@](C(C)(C)O)(O2)[C@@H](O)[C@H](O)[C@H]3O)cc1Cc1ccc(CCCC(=O)NC2(C(=O)NCCN(C)C)CCCCC2)cc1` [Example 16, N-(2-dimethylaminoethyl)-1-[4-[4-[[2-methyl-5-[(1S,2S,3S,4R,5S)-2,3,4-trihydroxy-1-(1-hydroxy-1-methyl-ethyl)-6,8-dioxabicyclo[3.2.1]octane-5-yl]phenyl]methyl]phenyl]butylamide]cyclohexyl carboxamide], the “hypoglycemic rate (%)” value was determined as 30.93%.

Still in this experiment, the particulars now being: dosage 1 mg/kg by gavage, glucose 4.0 g/kg, decline rate of AUCGlu 0-60min.
`Cc1ccc([C@]23OC[C@](C(C)(C)O)(O2)[C@@H](O)[C@H](O)[C@H]3O)cc1Cc1ccc(CCCC(=O)NC(C)(C)C(=O)NCCN(C)C)cc1` [Example 2]: the “hypoglycemic rate (%)” value was determined as 31.64%. Turning to `Cc1ccc([C@]23OC[C@](C(C)(C)O)(O2)[C@@H](O)[C@H](O)[C@H]3O)cc1Cc1ccc(CCCC(=O)N[C@@H](C)C(=O)NCCN(C)C)cc1` [Example 6, N-[(1S)-2-(2-dimethylaminoethylamino)-1-methyl-2-oxo-ethyl]-4-[4-[[2-methyl-5-[(1S,2S,3S,4R,5S)-2,3,4-trihydroxy-1-(1-hydroxy-1-methyl-ethyl)-6,8-dioxabicyclo[3.2.1]octane-5-yl]phenyl]methyl]phenyl]butanamide], the “hypoglycemic rate (%)” value came to 33.19%.
